What was measured:
Assay in all cases: relative viability (nuclei count vs DMSO), 5 days (fraction); higher = more cells survive
XMD8-85 + Olaparib = compound: CN1CCN(CC1)C2=CC(=C(C=C2)NC3=NC=C4C(=N3)N(C5=CC=CC=C5C(=O)N4C)C)OC [XMD8-85] + O=C(c1cc(Cc2n[nH]c(=O)c3ccccc23)ccc1F)N1CCN(C(=O)C2CC2)CC1 [Olaparib] (partner 8 µM)
Method in brief: (§1)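 Lung cancer cell lines were seeded in 1536-well plates and dosed by pin tool the next day, with either a single drug or a fixed anchor-drug dose combined with five library-drug doses (not always all listed) spaced in √10 steps. Five days later, one step fixed the cells and stained their nuclei (final 0.05% Triton X-100, 1% formaldehyde, 1 ug/ml Hoechst), and nuclei were counted on 4× images. Relative viability is the nuclei count in treated wells divided by the count in vehicle wells, and each value is the median of duplicate plates.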

XMD8-85 + Pictilisib = compound: CN1CCN(CC1)C2=CC(=C(C=C2)NC3=NC=C4C(=N3)N(C5=CC=CC=C5C(=O)N4C)C)OC [XMD8-85] + CS(=O)(=O)N1CCN(Cc2cc3nc(-c4cccc5[nH]ncc45)nc(N4CCOCC4)c3s2)CC1 [Pictilisib] (partner 1 µM)
Method in brief: as §1

XMD8-85 + Decitabine = compound: CN1CCN(CC1)C2=CC(=C(C=C2)NC3=NC=C4C(=N3)N(C5=CC=CC=C5C(=O)N4C)C)OC [XMD8-85] + Nc1ncn([C@H]2C[C@H](O)[C@@H](CO)O2)c(=O)n1 [Decitabine] (partner 2 µM)
Method in brief: as §1

4EGI-1 + Phenformin = compound: O=C(O)C(Cc1ccccc1[N+](=O)[O-])=NNc1nc(-c2ccc(Cl)c(Cl)c2)cs1 (mixture of isomers) [4EGI-1] + N=C(N)NC(=N)NCCc1ccccc1 [Phenformin] (partner 250 µM)
Method in brief: as §1

## NCI-H1792
XMD8-85 + Olaparib; first compound 0.253 µM
  relative viability: 0.526
XMD8-85 + Olaparib; first compound 0.8 µM
  relative viability: 0.298
XMD8-85 + Olaparib; first compound 2.53 µM
  relative viability: 0.284
XMD8-85 + Olaparib; first compound 8 µM
  relative viability: 0.318
XMD8-85 + Pictilisib; first compound 0.08 µM
  relative viability: 0.251
XMD8-85 + Pictilisib; first compound 0.253 µM
  relative viability: 0.226
XMD8-85 + Pictilisib; first compound 2.53 µM
  relative viability: 0.276
XMD8-85 + Pictilisib; first compound 8 µM
  relative viability: 0.317
XMD8-85 + Decitabine; first compound 0.253 µM
  relative viability: 0.468
XMD8-85 + Decitabine; first compound 0.8 µM
  relative viability: 0.525
XMD8-85 + Decitabine; first compound 2.53 µM
  relative viability: 0.504
XMD8-85 + Decitabine; first compound 8 µM
  relative viability: 0.361
4EGI-1 + Phenformin; first compound 0.5 µM
  relative viability: 0.285
4EGI-1 + Phenformin; first compound 1.581 µM
  relative viability: 0.462
4EGI-1 + Phenformin; first compound 5 µM
  relative viability: 0.41
4EGI-1 + Phenformin; first compound 15.81 µM
  relative viability: 0.322
4EGI-1 + Phenformin; first compound 50 µM
  relative viability: 0.378

Source: the supplement of paper PMC10307832
